{
  "source": "paper PMC3433420",
  "about": "(PLoS ONE, 2012)",
  "key": {"[1]": {"target": "T1, ABL2 SH2 domain (Homo sapiens, UniProt P42684)", "T1 construct": "93 SH2 and 2 PTB domain-containing constructs; 6X His; thioredoxin; made in house; host or cells: E. coli BL21(DE3)pLysS", "T1 sequence (P42684 173-263 limits assumed)": "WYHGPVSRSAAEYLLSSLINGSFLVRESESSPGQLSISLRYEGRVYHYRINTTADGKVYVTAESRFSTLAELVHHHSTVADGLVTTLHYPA", "assay": "FP saturation binding assay", "conditions": "protein ABL2, high-confidence ErbB interactions, mean of replicate hits", "procedure,_shortened": "(§1)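 Rhodamine-labeled peptides (10 nM final) were titrated with 12 SH2 domain concentrations (0.002–10 µM) in 20 mM HEPES, 100 mM KCl, 0.1% Tween-20, 5 mM DTT, pH 7.8. After 20 min at room temperature in the dark, FP (ex 530/em 555 nm) was read. KDs came from nonlinear least-squares fits.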"}, "[2]": {"target": "SYK-NC tandem SH2 domains (Homo sapiens, UniProt P43405)", "assay": "FP saturation binding assay"}, "[3]": {"target": "PIK3R2-N SH2 domain (Homo sapiens, UniProt O00459)", "sequence (O00459 330-425 limits assumed)": "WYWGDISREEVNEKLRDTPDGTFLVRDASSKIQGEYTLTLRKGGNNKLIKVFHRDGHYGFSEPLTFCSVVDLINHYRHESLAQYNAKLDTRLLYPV", "assay": "FP saturation binding assay"}, "[4]": {"target": "T2, PIK3R1-C SH2 domain (Homo sapiens, UniProt P27986)", "T2 construct": "6X His; thioredoxin; made in house; host or cells: E. coli BL21(DE3)pLysS", "T2 sequence (P27986 624-718 limits assumed)": "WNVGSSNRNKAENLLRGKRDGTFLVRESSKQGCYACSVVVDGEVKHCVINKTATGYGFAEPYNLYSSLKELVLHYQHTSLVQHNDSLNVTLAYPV", "assay": "FP saturation binding assay", "conditions": "protein PIK3R1-C, high-confidence ErbB interactions, mean of replicate hits", "procedure,_shortened": "as §1"}, "[5]": {"target": "GRB7 SH2 domain (Homo sapiens, UniProt Q14451)", "sequence (Q14451 431-527 limits assumed)": "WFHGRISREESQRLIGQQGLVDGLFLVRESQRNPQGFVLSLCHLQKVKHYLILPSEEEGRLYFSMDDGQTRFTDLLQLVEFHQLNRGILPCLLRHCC", "parameters": "6X His; thioredoxin; made in house; host or cells: E. coli BL21(DE3)pLysS", "conditions": "previous protein microarray data, Figure S5; cited from earlier work"}, "[6]": {"target": "T3, HCK SH2 domain (Homo sapiens, UniProt P08631)", "T3 construct": "93 SH2 and 2 PTB domain-containing constructs; 6X His; thioredoxin; made in house; host or cells: E. coli BL21(DE3)pLysS", "T3 sequence (P08631 144-241 limits assumed)": "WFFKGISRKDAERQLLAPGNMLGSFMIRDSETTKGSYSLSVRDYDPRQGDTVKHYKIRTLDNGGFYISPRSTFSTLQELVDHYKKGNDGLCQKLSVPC", "assay": "FP saturation binding assay", "conditions": "protein HCK, high-confidence ErbB interactions, mean of replicate hits", "procedure,_shortened": "as §1"}, "[7]": {"target": "T4, SRC SH2 domain (Homo sapiens, UniProt P12931)", "T4 construct": "between the c-Src SH2 domain and ErbB1 in our FP assay; 6X His; thioredoxin; made in house; host or cells: E. coli BL21(DE3)pLysS", "T4 sequence (P12931 151-248 limits assumed)": "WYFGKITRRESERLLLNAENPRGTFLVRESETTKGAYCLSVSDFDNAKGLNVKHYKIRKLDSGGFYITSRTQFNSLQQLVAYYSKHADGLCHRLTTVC", "assay": "FP saturation binding assay", "conditions": "protein SRC; high-confidence ErbB interactions; mean of replicate hits", "procedure,_shortened": "as §1"}, "[8]": {"target": "T5, FGR SH2 domain (Homo sapiens, UniProt P09769)", "T5 construct": "93 SH2 and 2 PTB domain-containing constructs; 6X His; thioredoxin; made in house; host or cells: E. coli BL21(DE3)pLysS", "T5 sequence (P09769 144-241 limits assumed)": "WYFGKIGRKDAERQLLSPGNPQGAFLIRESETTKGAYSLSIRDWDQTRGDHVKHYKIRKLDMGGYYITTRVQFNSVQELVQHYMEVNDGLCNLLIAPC", "assay": "FP saturation binding assay", "conditions": "Protein FGR, high-confidence ErbB interactions, mean over replicate hits", "procedure,_shortened": "as §1"}, "[9]": {"target": "BLK SH2 domain (Homo sapiens, UniProt P51451)", "sequence (P51451 124-220 limits assumed)": "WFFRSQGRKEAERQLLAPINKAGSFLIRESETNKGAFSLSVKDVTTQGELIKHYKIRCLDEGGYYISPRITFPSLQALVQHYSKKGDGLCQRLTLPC", "assay": "FP saturation binding assay"}},
  "note": "Residues, ends and D or L forms follow the SMILES beside them.",
  "data": [
    {"compound": "CSCC[C@H](NC(=O)[C@H](Cc1ccc(OP(=O)(O)O)cc1)NC(=O)CNC(=O)[C@H](CCC(=O)O)NC(=O)[C@H](CCC(=O)O)NC(=O)[C@H](CC(=O)O)NC(=O)[C@H](CC(C)C)NC(=O)[C@H](CCC(=O)O)NC(=O)CNC(=O)[C@H](CCCNC(=N)N)NC(=O)[C@@H]1CCCN1)C(=O)N[C@H](C(=O)N1CCC[C@H]1C(=O)N[C@@H](CCSC)C(=O)N[C@@H](CCCNC(=N)N)C(=O)N[C@@H](CC(=O)O)C(=O)N[C@@H](CCCCN)C(=O)N[C@@H](CC(=O)O)C(=O)O)[C@@H](C)O", "note": "[ErbB4 1150 18-mer] (HELM PEPTIDE1{P.R.G.E.L.D.E.E.G.[O=C([C@H](Cc1ccc(OP(=O)(O)O)cc1)N[*:1])[*:2]].M.T.P.M.R.D.K.D}$$$$V2.0)", "values": [
      {"measurement": "Kd", "setting": "[1]", "result": 8.25, "unit": "µM"},
      {"measurement": "Kd", "setting": "[2]", "result": 6.19, "unit": "µM"}
    ]},
    {"compound": "CC(C)[C@H](NC(=O)[C@H](CC(=O)O)NC(=O)[C@@H]1CCCN1C(=O)[C@H](CCC(N)=O)NC(=O)[C@H](CC(N)=O)NC(=O)[C@@H](NC(=O)[C@H](Cc1ccc(OP(=O)(O)O)cc1)NC(=O)[C@H](CCC(=O)O)NC(=O)[C@@H]1CCCN1C(=O)[C@H](CCC(N)=O)NC(=O)[C@@H]1CCCN1)C(C)C)C(=O)N[C@@H](CCCNC(=N)N)C(=O)N[C@@H](CC(=O)O)C(=O)O", "note": "[ErbB2 1139 13-mer] (HELM PEPTIDE1{P.Q.P.E.[O=C([C@H](Cc1ccc(OP(=O)(O)O)cc1)N[*:1])[*:2]].V.N.Q.P.D.V.R.D}$$$$V2.0)", "values": [
      {"measurement": "Kd", "setting": "[3]", "result": 2.2, "unit": "µM"}
    ]},
    {"compound": "CSCC[C@H](NC(=O)[C@H](CCC(=O)O)NC(=O)[C@H](CCC(=O)O)NC(=O)[C@H](Cc1ccc(OP(=O)(O)O)cc1)NC(=O)CNC(=O)[C@H](CCC(N)=O)NC(=O)[C@H](CCC(=O)O)NC(=O)[C@@H](N)CO)C(=O)N[C@@H](CCCNC(=N)N)C(=O)N[C@@H](C)C(=O)N[C@@H](Cc1ccccc1)C(=O)N[C@@H](CCC(N)=O)C(=O)N[C@@H](CC(=O)O)C(=O)O", "note": "[ErbB3 1289 13-mer] (HELM PEPTIDE1{S.E.Q.G.[O=C([C@H](Cc1ccc(OP(=O)(O)O)cc1)N[*:1])[*:2]].E.E.M.R.A.F.Q.D}$$$$V2.0)", "values": [
      {"measurement": "Kd", "setting": "[4]", "result": 0.2, "unit": "µM"}
    ]},
    {"compound": "DNLYpYWDQDPPEd [ErbB2 pY1222, N-terminally rhodamine-labeled 13-mer phosphopeptide]", "values": [
      {"measurement": "interaction with GRB7 on the PM platform", "setting": "[5]", "result": "only displayed interactions with GRB7 from the PM platform"}
    ]},
    {"compound": "CSCC[C@H](NC(=O)[C@H](Cc1ccc(OP(=O)(O)O)cc1)NC(=O)[C@H](CCC(=O)O)NC(=O)[C@H](Cc1ccc(O)cc1)NC(=O)CNC(=O)[C@@H](N)CC(C)C)C(=O)N[C@@H](CC(=O)O)C(=O)N[C@H](C(=O)NCC(=O)N[C@@H](CO)C(=O)N[C@@H](CC(=O)O)C(=O)N[C@@H](CC(C)C)C(=O)N[C@@H](CC(=O)O)C(=O)O)C(C)C", "note": "[ErbB3 1224 13-mer] (HELM PEPTIDE1{L.G.Y.E.[O=C([C@H](Cc1ccc(OP(=O)(O)O)cc1)N[*:1])[*:2]].M.D.V.G.S.D.L.D}$$$$V2.0)", "values": [
      {"measurement": "Kd", "setting": "[6]", "result": 10.9, "unit": "µM"}
    ]},
    {"compound": "CC(C)C[C@H](NC(=O)[C@H](Cc1ccc(OP(=O)(O)O)cc1)NC(=O)[C@H](CC(C)C)NC(=O)[C@@H]1CCCN1C(=O)[C@H](CCC(=O)O)NC(=O)[C@H](CC(N)=O)NC(=O)[C@@H](NC(=O)[C@H](Cc1ccc(O)cc1)NC(=O)[C@H](CCC(=O)O)NC(=O)[C@H](CC(=O)O)NC(=O)[C@@H](N)CCC(=O)O)C(C)C)C(=O)N[C@@H](CC(N)=O)C(=O)N[C@H](C(=O)N[C@@H](Cc1ccccc1)C(=O)N[C@@H](C)C(=O)N[C@@H](CC(N)=O)C(=O)N[C@H](C(=O)N[C@@H](CC(=O)O)C(=O)O)[C@@H](C)O)[C@@H](C)O", "note": "[ErbB4 1208 18-mer] (HELM PEPTIDE1{E.D.E.Y.V.N.E.P.L.[O=C([C@H](Cc1ccc(OP(=O)(O)O)cc1)N[*:1])[*:2]].L.N.T.F.A.N.T.D}$$$$V2.0)", "values": [
      {"measurement": "Kd", "setting": "[7]", "result": 5.84, "unit": "µM"}
    ]},
    {"compound": "CC(C)C[C@H](NC(=O)[C@H](CC(N)=O)NC(=O)[C@@H](N)CC(=O)O)C(=O)N[C@@H](Cc1ccc(O)cc1)C(=O)N[C@@H](Cc1ccc(OP(=O)(O)O)cc1)C(=O)N[C@@H](Cc1c[nH]c2ccccc12)C(=O)N[C@@H](CC(=O)O)C(=O)N[C@@H](CCC(N)=O)C(=O)N[C@@H](CC(=O)O)C(=O)N1CCC[C@H]1C(=O)N1CCC[C@H]1C(=O)N[C@@H](CCC(=O)O)C(=O)N[C@@H](CC(=O)O)C(=O)O", "note": "[ErbB2 1222 13-mer] (HELM PEPTIDE1{D.N.L.Y.[O=C([C@H](Cc1ccc(OP(=O)(O)O)cc1)N[*:1])[*:2]].W.D.Q.D.P.P.E.D}$$$$V2.0)", "values": [
      {"measurement": "Kd", "setting": "[8]", "result": 8.34, "unit": "µM"},
      {"measurement": "Kd", "setting": "[9]", "result": 10.9, "unit": "µM"}
    ]}
  ]
}
